Converted amounts (≈) assume the structure as drawn. “Also recorded” adds a separate entry of the source. Like-named read-outs stand apart in the source and are kept apart here.
Experiments:
[1] = tested on: HCoV; conditions: Huh7, 4 days, 96 well, reference compound; cited from earlier work
[2] = tested on: Huh7; conditions: Huh7, 4 days, CellTiter Glo, reference compound; cited from earlier work
[3] = target: T1, SARS-CoV-2 main protease (Severe acute respiratory syndrome coronavirus 2, UniProt P0DTD1); conditions: auto dock; cited from earlier work
T1 construct: also MProtease (SARS-CoV-2 main protease)

[4] = tested on: COVID-19; conditions: after one month; control arm 12.8%, difference not statistically significant; cited from earlier work
[5] = tested on: HIV; experiment: HIV in vitro tests (Table 1); type: cell-based
[6] = target: T2, Mpro (Severe acute respiratory syndrome coronavirus 2, UniProt P0DTD1); conditions: Mpro and substrate, 40 min, 384 well; cited from earlier work
T2 construct: also MProtease (SARS-CoV-2 main protease)

[7] = tested on: Vero E6 cells; experiment: Toxicity in Vero E6 cells; type: cell-based
Description: Remdesivir was used as a control and verified that the assay was working. The first independent trial (done in quadruplicate) involved using the very first BTS compound sent to us, dissolved at 10 ug/ml in DMSO. Toxicity was observed ˜0.078 ug/ml ([…] based on the molecular weight we were given and the concentration of the drug). The dose curve (log (inhibitor) vs. response (three parameters)) yielded the nicest curve, but only reached a maximum of ˜20% protection. […] Twenty-two 2-fold dilutions of the drug starting from 10 ug/ml (˜323 uM).
FIG. 18 illustrates a graph showing 90I toxicity in Vero E6 cells, according to an exemplary embodiment of the present general inventive concept.

[8] = tested on: guinea pigs; conditions: intradermal and topical, listed as DEGD; cited from earlier work
[9] = tested on: gamma interferon; experiment: Production of gamma interferon by cells; type: cell-based; conditions: compared with positive control PMA-Ionomycin combination
From the text: FIG. 4 illustrates a graph showing production of gamma interferon by cells receiving 90I compared to other drugs, according to an exemplary embodiment of the present general inventive concept.
Referring to FIG. 4, furthermore, 90I has proven to stimulate the production of gamma interferon (i.e. a dimerized soluble cytokine that is the only member of the type II class of interferons and is a product of human leukocytes and human lymphocytes). More specifically, […] and differentiate into tissue macrophages, such that each of the tissue macrophages may serve as a vehicle for transporting viruses to a variety of tissues. The ability of antiretroviral agents to cross the blood brain barrier is one important consideration, since the brain acts as a sanctuary for viruses as well as a site for disease progression.
Referring again to FIG. 4, activated CD8+ cells are reported to produce high levels of gamma interferon, which may be involved in the anti-HIV-1 immune responses, contributing to both control of viral spread and concomitant lymphoid follicular lyses. […] This finding may have a far-reaching implication and relevant to interleukin 12 (IL-12) (i.e. a cytokine that is produced by activated antigen-presenting cells, such as dendritic cells and/or macrophages). […]

[10] = tested on: rat; conditions: cited from earlier work
[11] = Table 10 summary; cited from earlier work
[12] = tested on: Pseudomonas putida; conditions: cited from earlier work
[13] = tested on: ovariectomized adult Spraque-Dawley (CD) rats; conditions: 500-2000 mg/kg/day for 7 days, oral gavage, up to maximally tolerated dose; cited from earlier work
[14] = tested on: mouse lymphoma cells; conditions: with and without metabolic activation; cited from earlier work
[15] = tested on: RF laboratory strain of HIV-1; experiment: Antiviral drug assay in CEM-SS cells; type: cell-based; conditions: Human immunodeficiency virus 1, CEM-SS, read-out: 50% effective concentration (EC50)
[16] = tested on: Pimephales promelas; conditions: acute, 96 h; cited from earlier work
[17] = 28 days; cited from earlier work
[18] = tested on: eye of the rabbit; conditions: single instillation, listed as DEGD; cited from earlier work
[19] = tested on: MDR-27221 HIV strain; experiment: microbe, parasite or virus in culture; type: cell-based, HIV-1
[20] = rats, cited from earlier work
[21] = cited from earlier work
[22] = tested on: dogs; conditions: up to 300 mg/kg/day for 90 days; cited from earlier work
[23] = tested on: rats; conditions: cited from earlier work
[24] = tested on: rats; conditions: cited from earlier work; remark: listed apart in the source
[25] = tested on: bacterial; conditions: with and without metabolic activation; cited from earlier work
[26] = tested on: rats; conditions: OECD 401; cited from earlier work
[27] = tested on: Seleneastrum capricornutum; conditions: in vivo; cited from earlier work
[28] = tested on: CEM-SS cells; experiment: Drug induced toxicity in CEM-SS cells; type: cell-based; conditions: Homo sapiens, read-out: 50% inhibitory concentration (IC50), drug induced toxicity, high-test concentration 100 ug/ml
[29] = tested on: Daphnia; conditions: in vivo; cited from earlier work
[30] = tested on: Eisenia foetida; conditions: cited from earlier work
[31] = tested on: intact rabbit skin; conditions: semi-occlusive, four hours, listed as DEGD; cited from earlier work
[32] = tested on: activated sludge; conditions: cited from earlier work
[33] = cited from earlier work; remark: listed apart in the source
[34] = tested on: SARS-CoV-2; experiment: microbe, parasite or virus in culture; type: cell-based
[35] = tested on: CHL cells; conditions: cited from earlier work
[36] = HIV in vitro tests, read-out: EC50
[37] = from ppm by standard conversion factors
[38] = Severe acute respiratory syndrome coronavirus 2, preliminary, first independent trial

## CCN(CC)CCCC(C)Nc1ccnc2cc(Cl)ccc12 (centres unmarked) [Chloroquine phosphate]
[1]
  EC50: 3450 nM
[2]
  CC50: 40800 nM

## CC(C)c1nc(CN(C)C(=O)N[C@@H](CCN2CCOCC2)C(=O)N[C@H](CC[C@H](Cc2ccccc2)NC(=O)OCc2cncs2)Cc2ccccc2)cs1 [Cobicistat]
[3]
  Dissociation Constant: 5.7E−06
  SMINA score: −7.2
  Vina score: −7.2

## CCC(CC)COC(=O)[C@H](C)N[P@](=O)(OC[C@H]1O[C@@](C#N)(c2ccc3c(N)ncnn23)[C@H](O)[C@@H]1O)Oc1ccccc1 [Remdesivir]
[4]
  patients who had died: 13.9%
[2]
  CC50: 29000 nM

## CC(C)(C)NC(=O)[C@@H]1CN(Cc2cccnc2)CCN1C[C@@H](O)C[C@@H](Cc1ccccc1)C(=O)N[C@H]1c2ccccc2C[C@H]1O [Indinivir]
[5]; [36]
  EC50: 5 nM

## CC(C)(C)NC(=O)[C@@H]1C[C@@H]2CCCC[C@@H]2CN1C[C@@H](O)[C@H](Cc1ccccc1)NC(=O)[C@H](CC(N)=O)NC(=O)c1ccc2ccccc2n1 [Saquinovir]
[5]; [36]
  EC50: 1.2 nM

## Nc1ccn([C@H]2CC[C@@H](CO)O2)c(=O)n1 [ddc]
[5]; [36]
  EC50: 1 nM

## Cc1ccnc2c1NC(=O)c1cccnc1N2C1CC1 [Neverepin]
[5]; [36]
  EC50: 48 nM

## CCN(CCO)CCCC(C)Nc1ccnc2cc(Cl)ccc12 (centres unmarked) [Hydroxychloroquine]
[3]
  Dissociation Constant: 2.3E−05
  SMINA score: −6.4
  Vina score: −6.0

## CCOC(=O)c1c(CSc2ccccc2)n(C)c2cc(Br)c(O)c(CN(C)C)c12 [Umifenovir]
[3]
  Dissociation Constant: 2.2E−05
  SMINA score: −6.0
  Vina score: −6.4

## O=c1[nH]cnc2c1ncn2[C@H]1CC[C@@H](CO)O1 [ddI]
[5]; [36]
  EC50: 5.6 nM

## Cc1cccc(C)c1OCC(=O)N[C@@H](Cc1ccccc1)[C@@H](O)C[C@H](Cc1ccccc1)NC(=O)[C@H](C(C)C)N1CCCNC1=O [Lopinavir]
[3]
  Dissociation Constant: 3.4E−06
  SMINA score: −7.5
  Vina score: −7.4
[6]
  EC50: 108000 nM

## CCN(CC)CCCC(C)Nc1ccnc2cc(Cl)ccc12 (centres unmarked) [Chloroquine]
[3]
  Dissociation Constant: 5.0E−05
  SMINA score: −5.4
  Vina score: −5.9

## O=C(OCCOCCOC(=O)c1ccccc1)c1ccccc1 [90I, diethylene glycol dibenzoate]
[7]; Vero E6, converted with molecular weight given
  concentration at which toxicity was observed: ~2500 nM
[7]; Vero E6, first independent trial, quadruplicate
  concentration at which toxicity was observed: ~78 ng/mL
[8]
  Sensitisation: No allergic skin reaction and Not
[9]
  amount of gamma interferon produced: equivalent to that of the positive control
[10]; Table 10 summary
  Repeat dose, NOAEL: 1,000 mg/kg bw/day
[10]; rat, thirteen week, diet
  NOAEL: 1,000 mg/kg bw
[11]
  Genotoxicity: Negative
[12]; Table 11
  EC50 (P. putida): EC50 >10 mg/L
[12]; highest testable concentration 10 mg/L
  inhibitory effect (1050): > 10 mg/L
[13]
  estrogenic activity: did not exhibit estrogenic activity
[14]
  mutagenic potential, mammalian cell: did not demonstrate mutagenic potential
[15]
  EC50: 0.02 µg/mL (≈ 0.0636 µM)
[16]
  LC50 to fish: 3.9 µg/mL (≈ 12.4 µM)
[17]
  biodegradation: 93 % of ThOD
[18]
  Eye irritation: transient very slight conjunctival irritation only; also recorded: Slight
[19]; Human immunodeficiency virus 1
  EC50: 3 µg/mL (≈ 9.54 µM)
[19]; MDR-27221
  inhibition of the MDR strain: strong inhibitory activity
[20]; single oral doses of 50 and 750 mg/kg
  time within which almost all of the dose was adsorbed, metabolized and excreted in the urine: ≤ 24 h
[20]; single oral doses
  metabolic pathway: hydrolysis of the ester bonds to benzoic acid
[21]
  Water solubility: 193 µg/mL
[22]
  effects of dietary administration: No effects
[23]; Table 10 summary
  Maternal toxicity: 1,000 mg/kg bw/day
  Reproductive toxicity (NOEL): 250 mg/kg bw/day
  Reproductive toxicity NOAEL: 500 mg/kg bw/day
  Reproductive toxicity, D: D: Yes
[23]; rats, diet
  NOAEL for prenatal development: 500 mg/kg/day
  NOEL for fetal growth and development: 250 mg/kg/day
  NOEL for maternal toxicity: 1,000 mg/kg/day
[24]; Table 10 summary
  Reproductive toxicity, R: R: No
[24]; [37]
  NOAEL for the FO and FI parent animals: 500 mg/kg bw/day
  NOAEL for the developing offspring: 165 mg/kg bw/day
  NOEL for reproductive parameters: 500 mg/kg bw/day
[24]; rats, 2-generation, diet
  NOAEL for the FO and FI parent animals, dietary concentration: 10,000 ppm
  NOAEL for the developing offspring, dietary concentration: 3,300 ppm
  NOEL for reproductive parameters, dietary concentration: 10,000 ppm
[25]
  mutagenic potential, bacterial: did not demonstrate mutagenic potential
[26]
  LD50, oral: 4,198 mg/kg bw
[27]
  growth rate-based EC50 for algae: 11 µg/mL
[28]
  IC50: > 100 µg/mL
[5]; Human immunodeficiency virus 1
  EC50: 0.3 nM
[29]
  EC50 for Daphnia: 6.7 µg/mL
[30]; 14 d, Table 11
  LC50 (14 d), earthworm: d) >1,000 mg/kg
[30]; 14 days
  acute toxicity to earthworm: greater than 1,000 ppm
[31]
  Skin irritation: No dermal reaction and No
[32]; Table 11
  NOEC, activated sludge: NOEC ≥100 mg/L,
[32]; at 100 mg/L
  activated sludge respiration: not inhibited
[33]
  Log P: 3.04
[34]; [38]
  EC50: 4100 nM
  IC50: 2.8 nM
[34]; dose curve log(inhibitor) vs. response, SARS-CoV-2 infected cells
  maximum protection: ~20%
[35]
  clastogenic activity: No response considered to be indicative of clastogenic

## CCOC(=O)C1=C[C@@H](OC(CC)CC)[C@H](NC(C)=O)[C@@H](N)C1 [Oseltamivir]
[3]
  Dissociation Constant: 1.8E−05
  SMINA score: −6.3
  Vina score: −6.5

## CC(C)c1nc(CN(C)C(=O)N[C@H](C(=O)N[C@@H](Cc2ccccc2)C[C@H](O)[C@H](Cc2ccccc2)NC(=O)OCc2cncs2)C(C)C)cs1 [Ritonavir]
[3]
  Dissociation Constant: 2.5E−06
  SMINA score: −7.7
  Vina score: −7.5

## CC(C)c1nc(CN(C)C(=O)N[C@H](C(=O)N[C@@H](Cc2ccccc2)C[C@H](O)[C@H](Cc2ccccc2)NC(=O)OCc2cncs2)C(C)C)cs1 [Retinovir]
[5]; [36]
  EC50: 2 nM
